# Data published in PubChem BioAssay (NCI).
#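 All cell lines were grown in 96-well plates and treated with compound for 48 hours. At the GI50, growth is halved. TGI marks complete inhibition of growth.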
# Columns and labels:
# Assay in all cases: growth of human tumour cells (NCI), 48 h
# [1] = test system: 786-0 renal
# [2] = test system: A498 renal
# [3] = test system: A549 NSCLC
# [4] = test system: ACHN renal
# [5] = test system: BT-549 breast
# [6] = test system: CAKI-1 renal
# [7] = test system: CCRF-CEM leukemia
# [8] = test system: COLO 205 colon
# [9] = test system: DU-145 prostate
# [10] = test system: HCC-2998 colon
# [11] = test system: HCT-116 colon
# [12] = test system: HCT-15 colon
# [13] = test system: HL-60(TB) leukemia
# [14] = test system: HOP-62 NSCLC
# [15] = test system: HOP-92 NSCLC
# [16] = test system: HS 578T breast
# [17] = test system: HT29 colon
# [18] = test system: IGROV1 ovarian
# [19] = test system: K-562 leukemia
# [20] = test system: KM12 colon
# [21] = test system: LOX IMVI melanoma
# [22] = test system: M14 melanoma
# [23] = test system: MALME-3M melanoma
# [24] = test system: MCF7 breast
# [25] = test system: MDA-MB-231 breast
# [26] = test system: MDA-MB-435
# [27] = test system: MOLT-4 leukemia
# [28] = test system: NCI-H226 lung
# [29] = test system: NCI-H23 lung
# [30] = test system: NCI-H460 lung
# [31] = test system: NCI-H522 lung
# [32] = test system: NCI/ADR-RES ovarian
# [33] = test system: OVCAR-3 ovarian
# [34] = test system: OVCAR-4 ovarian
# [35] = test system: OVCAR-5 ovarian
# [36] = test system: OVCAR-8 ovarian
# [37] = test system: PC-3 prostate
# [38] = test system: RPMI-8226 leukemia
# [39] = test system: RXF 393 renal
# [40] = test system: SF-268 CNS
# [41] = test system: SF-295 CNS
# [42] = test system: SF-539 CNS
# [43] = test system: SK-MEL-2 melanoma
# [44] = test system: SK-MEL-28 melanoma
# [45] = test system: SK-MEL-5 melanoma
# [46] = test system: SK-OV-3 ovarian
# [47] = test system: SN12C renal
# [48] = test system: SNB-19 CNS
# [49] = test system: SNB-75 CNS
# [50] = test system: SR leukemia
# [51] = test system: SW-620 colon
# [52] = test system: T-47D breast
# [53] = test system: TK-10 renal
# [54] = test system: U251 CNS
# [55] = test system: UACC-257 melanoma
# [56] = test system: UACC-62 melanoma
# [57] = test system: UO-31 renal
# [58] = test system: EKVX NSCLC
smiles,measurement,setting,value
COc1cccc(C2CC(=O)Nc3c2c(C)nn3-c2nc3ccccc3[nH]2)c1OC (stereo not drawn),GI50,[1],5.51 µM
same,TGI,[1],65 µM
same,TGI,[2],8.38 µM
same,GI50,[3],3.5 µM
same,TGI,[3],28.6 µM
same,GI50,[4],3.98 µM
same,TGI,[4],> 90.9 µM
same,GI50,[5],5.52 µM
same,TGI,[5],42.2 µM
same,GI50,[6],3 µM
same,TGI,[6],19.7 µM
same,GI50,[7],1.86 µM
same,TGI,[7],> 100 µM
same,GI50,[8],5.72 µM
same,TGI,[8],20.1 µM
same,GI50,[9],8.68 µM
same,TGI,[9],> 89.4 µM
same,GI50,[10],18.1 µM
same,TGI,[10],> 79.8 µM
same,GI50,[11],3.36 µM
same,TGI,[11],14.6 µM
same,GI50,[12],3.45 µM
same,TGI,[12],26.8 µM
same,GI50,[13],2.97 µM
same,TGI,[13],13.8 µM
same,GI50,[14],2.73 µM
same,TGI,[14],7.78 µM
same,GI50,[15],2.95 µM
same,TGI,[15],24.3 µM
same,GI50,[16],3.51 µM
same,TGI,[16],47.5 µM
same,GI50,[17],4.35 µM
same,TGI,[17],> 47.6 µM
same,GI50,[18],4.33 µM
same,TGI,[18],24 µM
same,GI50,[19],3.89 µM
same,TGI,[19],> 100 µM
same,GI50,[20],4.17 µM
same,TGI,[20],19.8 µM
same,GI50,[21],3.65 µM
same,TGI,[21],12.9 µM
same,GI50,[22],4.45 µM
same,TGI,[22],30.3 µM
same,GI50,[23],7.97 µM
same,TGI,[23],39 µM
same,GI50,[24],3.36 µM
same,TGI,[24],> 100 µM
same,GI50,[25],2.92 µM
same,TGI,[25],8.26 µM
same,GI50,[26],3 µM
same,TGI,[26],12 µM
same,GI50,[27],0.0531 µM
same,GI50,[28],3.36 µM
same,TGI,[28],15.9 µM
same,GI50,[29],2.53 µM
same,TGI,[29],7.54 µM
same,GI50,[30],3.09 µM
same,TGI,[30],10.2 µM
same,GI50,[31],3.7 µM
same,TGI,[31],17.8 µM
same,GI50,[32],6.67 µM
same,TGI,[32],> 100 µM
same,GI50,[33],4.55 µM
same,TGI,[33],19.8 µM
same,GI50,[34],6.92 µM
same,TGI,[34],> 91.3 µM
same,GI50,[35],11.8 µM
same,TGI,[35],> 100 µM
same,GI50,[36],4.41 µM
same,TGI,[36],> 100 µM
same,GI50,[37],4.44 µM
same,TGI,[37],60.5 µM
same,GI50,[38],3.21 µM
same,TGI,[38],10.6 µM
same,GI50,[39],2.91 µM
same,TGI,[39],10.6 µM
same,GI50,[40],4.92 µM
same,TGI,[40],61.3 µM
same,GI50,[41],1.37 µM
same,TGI,[41],3.78 µM
same,GI50,[42],2.76 µM
same,TGI,[42],9.38 µM
same,GI50,[43],6.37 µM
same,TGI,[43],32.7 µM
same,GI50,[44],9.71 µM
same,TGI,[44],> 87 µM
same,GI50,[45],2.2 µM
same,TGI,[45],5.74 µM
same,GI50,[46],3.83 µM
same,TGI,[46],13 µM
same,GI50,[47],4.29 µM
same,TGI,[47],48.3 µM
same,GI50,[48],4.07 µM
same,TGI,[48],> 100 µM
same,GI50,[49],2.43 µM
same,TGI,[49],13.5 µM
same,GI50,[50],4.22 µM
same,TGI,[50],> 40.9 µM
same,GI50,[51],4.19 µM
same,TGI,[51],46.4 µM
same,GI50,[52],4.02 µM
same,TGI,[52],50.7 µM
same,GI50,[53],6.8 µM
same,TGI,[53],> 100 µM
same,GI50,[54],3.63 µM
same,TGI,[54],20.3 µM
same,GI50,[55],5.77 µM
same,TGI,[55],39.8 µM
same,GI50,[56],2.52 µM
same,TGI,[56],7.86 µM
same,GI50,[57],3.35 µM
same,TGI,[57],23.6 µM
CCSC[C@@H]1C[C@](O)(c2ccccc2)[C@@H](c2ccccc2)O1,GI50,[1],> 100 µM
same,TGI,[1],> 100 µM
same,GI50,[2],69.9 µM
same,TGI,[2],> 100 µM
same,GI50,[3],82.9 µM
same,TGI,[3],> 100 µM
same,GI50,[4],> 88 µM
same,TGI,[4],> 100 µM
same,GI50,[5],89.1 µM
same,TGI,[5],> 100 µM
same,GI50,[6],> 83.8 µM
same,TGI,[6],> 100 µM
same,GI50,[7],> 71.5 µM
same,TGI,[7],> 100 µM
same,GI50,[8],> 78.9 µM
same,TGI,[8],> 100 µM
same,GI50,[9],> 100 µM
same,TGI,[9],> 100 µM
same,GI50,[58],59.2 µM
same,TGI,[58],> 100 µM
same,GI50,[10],> 100 µM
same,TGI,[10],> 100 µM
same,GI50,[11],58.6 µM
same,TGI,[11],> 100 µM
same,GI50,[12],82.1 µM
same,TGI,[12],> 100 µM
same,GI50,[13],9.84 µM
same,TGI,[13],> 50.7 µM
same,GI50,[14],> 100 µM
same,TGI,[14],> 100 µM
same,GI50,[15],65.5 µM
same,TGI,[15],> 100 µM
same,GI50,[16],50.9 µM
same,TGI,[16],> 97.1 µM
same,GI50,[17],69.6 µM
same,TGI,[17],> 100 µM
same,GI50,[18],59.5 µM
same,TGI,[18],> 100 µM
same,GI50,[19],12.3 µM
same,TGI,[19],> 100 µM
same,GI50,[20],> 75.8 µM
same,TGI,[20],> 100 µM
same,GI50,[21],> 94.2 µM
same,TGI,[21],> 100 µM
same,GI50,[22],> 90.1 µM
same,TGI,[22],> 100 µM
same,GI50,[23],> 100 µM
same,TGI,[23],> 100 µM
same,GI50,[24],74.6 µM
same,TGI,[24],> 100 µM
same,GI50,[25],> 95 µM
same,TGI,[25],> 100 µM
same,GI50,[26],> 94.6 µM
same,TGI,[26],> 100 µM
same,GI50,[27],7.18 µM
same,TGI,[27],> 23.7 µM
same,GI50,[28],> 77.1 µM
same,TGI,[28],> 100 µM
same,GI50,[29],79.9 µM
same,TGI,[29],> 100 µM
same,GI50,[30],> 76.1 µM
same,TGI,[30],> 100 µM
same,GI50,[31],58.4 µM
same,TGI,[31],> 100 µM
same,GI50,[32],77.8 µM
same,TGI,[32],> 100 µM
same,GI50,[33],70.1 µM
same,TGI,[33],> 100 µM
same,GI50,[34],66.9 µM
same,TGI,[34],> 100 µM
same,GI50,[35],> 100 µM
same,TGI,[35],> 100 µM
same,GI50,[36],> 100 µM
same,TGI,[36],> 100 µM
same,GI50,[37],56.7 µM
same,TGI,[37],> 100 µM
same,GI50,[38],28.7 µM
same,TGI,[38],> 100 µM
same,GI50,[39],76.2 µM
same,TGI,[39],> 100 µM
same,GI50,[40],> 78.6 µM
same,TGI,[40],> 100 µM
same,GI50,[41],46.2 µM
same,TGI,[41],> 100 µM
same,GI50,[42],> 100 µM
same,TGI,[42],> 100 µM
same,GI50,[43],> 100 µM
same,TGI,[43],> 100 µM
same,GI50,[44],> 100 µM
same,TGI,[44],> 100 µM
same,GI50,[45],44.4 µM
same,TGI,[45],> 100 µM
same,GI50,[46],> 100 µM
same,TGI,[46],> 100 µM
same,GI50,[47],> 94.5 µM
same,TGI,[47],> 100 µM
same,GI50,[48],> 100 µM
same,TGI,[48],> 100 µM
same,GI50,[49],61.4 µM
same,TGI,[49],> 100 µM
same,GI50,[50],< 0.136 µM
same,TGI,[50],9.3 µM
same,GI50,[51],> 100 µM
same,TGI,[51],> 100 µM
same,GI50,[52],49 µM
same,TGI,[52],> 100 µM
same,GI50,[53],> 91.7 µM
same,TGI,[53],> 100 µM
same,GI50,[54],99.1 µM
same,TGI,[54],> 100 µM
same,GI50,[55],> 82.3 µM
same,TGI,[55],> 100 µM
same,GI50,[56],69.2 µM
same,TGI,[56],> 100 µM
same,GI50,[57],51.2 µM
same,TGI,[57],> 100 µM
